Measured values as given in patent publication US11377425B1, “Small molecule modulators of IL-17” (LEO Pharma A/S, priority 2018, dated 2022).
pEC50: −log10 of the molar value.

Molecular target: T1, human IL-17AA (Homo sapiens, UniProt Q16552)
T1 construct: host or cells: HEK (human embryonic kidney) cells
T1 sequence (Q16552 24-155): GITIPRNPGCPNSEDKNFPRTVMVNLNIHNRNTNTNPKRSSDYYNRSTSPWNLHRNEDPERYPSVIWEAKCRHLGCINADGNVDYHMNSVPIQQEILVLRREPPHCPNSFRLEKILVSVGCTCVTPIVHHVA
Test: IL-8 release assay in human epithelial keratinocytes adult (HEKa)
Type: cell-based
Settings: HEKa cells, 3 ng/mL HEK-human IL-17AA + 10 ng/mL human TNFalpha; read-out: Rel EC50 IL-8 release assay
How it was run: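 IL-8 release, quantified by HTRF and normalized to controls, reports IL-17 signaling in HEKa cells treated with compound plus final 3 ng/mL IL-17AA (HEK-derived) and 10 ng/mL TNF-alpha for 68-72 h; TNF-alpha-only wells set 100% inhibition. Four-parameter logistic fits (r^2>0.9) give relative IC50 and Emax; PrestoBlue flags cytotoxicity.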

Compared with `Cn1cncc1-c1ccc(NC(=O)[C@@H](NC(=O)c2ccnn2C)[C@@H]2CCCc3ccccc32)cc1` [Example 375, 2-Methyl-N-[(1S)-2-[4-(3-methylimidazol-4-yl)anilino]-2-oxo-1-[(1R)-tetralin-1-yl]ethyl]pyrazole-3-carboxamide], `Cc1ncn(C)c1-c1ccc(NC(=O)[C@@H](NC(=O)c2ccnn2C)C2CCCCC2)cc1` [Example 337, N-[(1S)-1-cyclohexyl-2-[4-(3,5-dimethylimidazol-4-yl)anilino]-2-oxo-ethyl]-2-methyl-pyrazole-3-carboxamide] is higher in pEC50: < 6.00 for the first, 6.00 to 7.00 for the second.

Compared with `Cc1n[nH]c(C)c1-c1ccc(NC(=O)C(NC(=O)c2ccnn2[C@@H](C)CO)C2CCCCCCC2)cc1` (single isomer, unassigned) [Example 150], `Cc1n[nH]c(C)c1-c1ccc(NC(=O)C(NC(=O)c2ccnn2C)C2CCCCCCC2)cc1` (single isomer, unassigned) [Example 156, N-[1-cyclooctyl-2-[4-(3,5-dimethyl-1H-pyrazol-4-yl)anilino]-2-oxo-ethyl]-2-methyl-pyrazole-3-carboxamide] is higher in pEC50: < 6.00 for the first, > 7.00 for the second. The second is the more potent here.

First: Cn1cncc1-c1ccc(NC(=O)C(NC(=O)OC(C)(C)C)C(c2ccccc2)C2CCC2)cc1 (single isomer, unassigned) [Example 311, tert-butyl N-[1-[cyclobutyl(phenyl)methyl]-2-[4-(3-methylimidazol-4-yl)anilino]-2-oxo-ethyl]carbamate]
Second: Cc1ncn(C)c1-c1ccc(NC(=O)C(NC(=O)OC(C)(C)C)C(C2CC2)C2CC2)cc1 (stereo not drawn) [Example 84, tert-butyl N-[1-(dicyclopropylmethyl)-2-[4-(3,5-dimethylimidazol-4-yl)anilino]-2-oxo-ethyl]carbamate]
The pEC50 of the first is lower: < 6.00 for the first, 6.00 to 7.00 for the second. The second is the more potent here.

`CCn1nccc1C(=O)N[C@H](C(=O)Nc1ccc(-c2c(C)n[nH]c2C)cc1)[C@@H]1CC(C)(C)CCC1(F)F` [Example 213, N-[(1S)-1-[(1S)-2,2-difluoro-5,5-dimethyl-cyclohexyl]-2-[4-(3,5-dimethyl-1H-pyrazol-4-yl)anilino]-2-oxo-ethyl]-2-ethyl-pyrazole-3-carboxamide] and `Cc1n[nH]c(C)c1-c1ccc(NC(=O)[C@@H](NC(=O)c2ccnn2C)[C@@H]2CC(C)(C)CCC2(F)F)cc1` [Example 214, N-[(1S)-1-[(1S)-2,2-difluoro-5,5-dimethyl-cyclohexyl]-2-[4-(3,5-dimethyl-1H-pyrazol-4-yl)anilino]-2-oxo-ethyl]-2-methyl-pyrazole-3-carboxamide] cannot be ordered by pEC50: > 7.00 for the first, > 7.00 for the second.

First: Cc1n[nH]c(C)c1-c1ccc(NC(=O)[C@@H](NC(=O)c2ncnn2C)C(C2CC2)C2CC2)cc1 [Example 163, N-[(1S)-1-(dicyclopropylmethyl)-2-[4-(3,5-dimethyl-1H-pyrazol-4-yl)anilino]-2-oxo-ethyl]-2-methyl-1,2,4-triazole-3-carboxamide]
Second: Cc1n[nH]c(C)c1-c1ccc(NC(=O)[C@@H](NC(=O)c2ccnn2C)C(C2CCC2)C2CCC2)cc1 [Example 13, N-[(1S)-1-[di(cyclobutyl)methyl]-2-[4-(3,5-dimethyl-1H-pyrazol-4-yl)anilino]-2-oxo-ethyl]-2-methyl-pyrazole-3-carboxamide]
The pEC50 of the first is lower: < 6.00 for the first, > 7.00 for the second.

First: CCC(c1ccccc1)C(NC(=O)c1ccnn1C)C(=O)Nc1ccc(-c2c(C)n[nH]c2C)cc1 (single isomer, unassigned) [Example 227]
Second: CCn1nccc1C(=O)N[C@H](C(=O)Nc1ccc(-c2c(C)n[nH]c2C)cc1)C(C)C1CCC1 (single isomer, unassigned) [Example 193]
The pEC50 of the first is lower: < 6.00 for the first, 6.00 to 7.00 for the second.

`CCn1nncc1C(=O)N[C@H](C(=O)Nc1ccc(-c2c(C)n[nH]c2C)cc1)C(C1CCC1)C1CCC1` [Example 271, N-[(1S)-1-[di(cyclobutyl)methyl]-2-[4-(3,5-dimethyl-1H-pyrazol-4-yl)anilino]-2-oxo-ethyl]-3-ethyl-triazole-4-carboxamide] and `Cc1n[nH]c(C)c1-c1ccc(NC(=O)[C@@H](NC(=O)c2ccnn2C(C)C2CC2)C(C2CC2)C2CC2)cc1` (stereo partly drawn) [Example 222, 2-(1-cyclopropylethyl)-N-[(1S)-1-(dicyclopropylmethyl)-2-[4-(3,5-dimethyl-1H-pyrazol-4-yl)anilino]-2-oxo-ethyl]pyrazole-3-carboxamide] cannot be ordered by pEC50: > 7.00 for the first, > 7.00 for the second.

`CCc1n[nH]c(CC)c1-c1ccc(NC(=O)[C@@H](NC(=O)c2ccnn2[C@@H](C)CO)C(C2CC2)C2CC2)cc1` [Example 394, N-[(1S)-1-(dicyclopropylmethyl)-2-[4-(3,5-diethyl-1H-pyrazol-4-yl)anilino]-2-oxo-ethyl]-2-[(1S)-2-hydroxy-1-methyl-ethyl]pyrazole-3-carboxamide] and `CCc1n[nH]c(CC)c1-c1ccc(NC(=O)[C@@H](NC(=O)c2ccnn2[C@H](C)CO)C(C2CC2)C2CC2)cc1` [Example 395, N-[(1S)-1-(dicyclopropylmethyl)-2-[4-(3,5-diethyl-1H-pyrazol-4-yl)anilino]-2-oxo-ethyl]-2-[(1R)-2-hydroxy-1-methyl-ethyl]pyrazole-3-carboxamide] cannot be ordered by pEC50: > 7.00 for the first, > 7.00 for the second.

Compared with `Cc1ncn(C)c1-c1ccc(NC(=O)C(NC(=O)c2ccnn2C)C2CCC(F)(F)CC2)cc1` (single isomer, unassigned) [Example 334, N-[1-(4,4-difluorocyclohexyl)-2-[4-(3,5-dimethylimidazol-4-yl)anilino]-2-oxo-ethyl]-2-methyl-pyrazole-3-carboxamide], `Cc1ncn(C)c1-c1ccc(NC(=O)[C@@H](NC(=O)c2ccnn2C)C2CCCCCC2)cc1` [Example 336, N-[(1S)-1-cycloheptyl-2-[4-(3,5-dimethylimidazol-4-yl)anilino]-2-oxo-ethyl]-2-methyl-pyrazole-3-carboxamide] is higher in pEC50: < 6.00 for the first, 6.00 to 7.00 for the second.

First: Cc1n[nH]c(C)c1-c1ccc(NC(=O)[C@@H](NC(=O)c2c(C)ncn2C)C2CCCCC2)cc1 [Example 50, N-[(1S)-1-cyclohexyl-2-[4-(3,5-dimethyl-1H-pyrazol-4-yl)anilino]-2-oxo-ethyl]-3,5-dimethyl-imidazole-4-carboxamide]
Second: Cc1n[nH]c(C)c1-c1ccc(NC(=O)[C@@H](NC(=O)c2ccnn2CCO)C2CCCCC2)cc1 [Example 46, N-[(1S)-1-cyclohexyl-2-[4-(3,5-dimethyl-1H-pyrazol-4-yl)anilino]-2-oxo-ethyl]-2-(2-hydroxyethyl)pyrazole-3-carboxamide]
The pEC50 of the first is lower: < 6.00 for the first, 6.00 to 7.00 for the second.

`CCn1nccc1C(=O)NC(C(=O)Nc1ccc(-c2c(C)n[nH]c2C)cc1)C1CCCCCCC1` (single isomer, unassigned) [Example 155, N-[1-cyclooctyl-2-[4-(3,5-dimethyl-1H-pyrazol-4-yl)anilino]-2-oxo-ethyl]-2-ethyl-pyrazole-3-carboxamide] and `Cc1n[nH]c(C)c1-c1ccc(NC(=O)[C@@H](NC(=O)c2ccnn2C2CCC2)C2CCCCC2)cc1` [Example 108, 2-cyclobutyl-N-[(1S)-1-cyclohexyl-2-[4-(3,5-dimethyl-1H-pyrazol-4-yl)anilino]-2-oxo-ethyl]pyrazole-3-carboxamide] cannot be ordered by pEC50: > 7.00 for the first, > 7.00 for the second.

First: Cc1n[nH]c(C)c1-c1ccc(NC(=O)[C@@H](NC(=O)c2conc2C(C)C)C2CCC3(CC2)CC3)cc1 [Example 263, N-[(1S)-2-[4-(3,5-dimethyl-1H-pyrazol-4-yl)anilino]-2-oxo-1-spiro[2.5]octan-6-yl-ethyl]-3-isopropyl-isoxazole-4-carboxamidet]
Second: Cc1n[nH]c(C)c1-c1ccc(NC(=O)C(NC(=O)c2ccnn2C(C)C(C)O)C(C2CC2)C2CC2)cc1 (mixture of isomers) [Example 161, N-[(1S)-1-(dicyclopropylmethyl)-2-[4-(3,5-dimethyl-1H-pyrazol-4-yl)anilino]-2-oxo-ethyl]-2-[(1S,25) and (1R,2R)-2-hydroxy-1-methyl-propyl]pyrazole-3-carboxamide]
The pEC50 of the first is higher: 6.00 to 7.00 for the first, < 6.00 for the second.

`Cc1n[nH]c(C)c1-c1ccc(NC(=O)[C@@H](NC(=O)N2CCCC2CCO)C2CCCCC2)cc1` (single isomer, unassigned) [Example 467] and `Cc1n[nH]c(C)c1-c1ccc(NC(=O)[C@@H](NC(=O)N2CCCC2CO)C2CCCCC2)cc1` (single isomer, unassigned) [Example 474] cannot be ordered by pEC50: < 6.00 for the first, < 6.00 for the second.

`Cc1[nH]nc(C2CC2)c1-c1ccc(NC(=O)[C@@H](NC(=O)c2ccnn2C(C)C)C(C2CC2)C2CC2)cc1` [Example 383, N-[(1S)-2,2-dicyclopropyl-1-[[4-(3-cyclopropyl-5-methyl-1H-pyrazol-4-yl)phenyl]carbamoyl]ethyl]-2-isopropyl-pyrazole-3-carboxamide] and `CCc1n[nH]c(CC)c1-c1ccc(NC(=O)[C@@H](NC(=O)c2ccnn2C(C)C)C(C2CC2)C2CC2)cc1` [Example 399, N-[(1S)-1-(dicyclopropylmethyl)-2-[4-(3,5-diethyl-1H-pyrazol-4-yl)anilino]-2-oxo-ethyl]-2-isopropyl-pyrazole-3-carboxamide] cannot be ordered by pEC50: > 7.00 for the first, > 7.00 for the second.

First: Cc1ncn(C)c1-c1ccc(NC(=O)[C@@H](NC(=O)c2ccnn2C(C)C)C(C2CC2)C2CC2)cc1O [Example 363, N-[(1S)-1-(dicyclopropylmethyl)-2-[4-(3,5-dimethylimidazol-4-yl)-3-hydroxy-anilino]-2-oxo-ethyl]-2-isopropyl-pyrazole-3-carboxamide]
Second: CC(C)n1nccc1C(=O)N[C@H](C(=O)Nc1ccc(-c2c(C(C)(C)O)ncn2C)cc1)C(C1CC1)C1CC1 [Example 448, N-[(1S)-1-(Dicyclopropylmethyl)-2-[4-[5-(1-hydroxy-1-methyl-ethyl)-3-methyl-imidazol-4-yl]anilino]-2-oxo-ethyl]-2-isopropyl-pyrazole-3-carboxamide]
The pEC50 of the first is higher: > 7.00 for the first, 6.00 to 7.00 for the second. The first is the more potent here.
